According to ChEMBL document CHEMBL1146197, “Evolution of TEM-type enzymes: biochemical and genetic characterization of two new complex mutant TEM enzymes, TEM-151 and TEM-152, from a single patient” (Antimicrob Agents Chemother, 2007):
Values after ≈ are worked out from the molar mass of the structure shown.

Legend:
[1] = test system: Escherichia coli; experiment: Antimicrobial activity against recombinant Escherichia coli DH5-alpha isolate expressing pBK-TEM-1 and TEM1 by disk diffusion assay; type: functional; conditions: DH5alpha
[2] = test system: Escherichia coli; experiment: Antimicrobial activity against Escherichia coli DH5-alpha CF1295 isolate expressing CMT and TEM1 by […]; type: functional; conditions: DH5alpha
[3] = test system: Escherichia coli; experiment: Antimicrobial activity against Escherichia coli DH5-alpha TC1179 isolate expressing TEM-1 by […]; type: functional; conditions: DH5alpha
[4] = test system: Escherichia coli; experiment: microbe, parasite or virus in culture; type: functional; conditions: DH5alpha
[5] = test system: Escherichia coli; experiment: Antimicrobial activity against recombinant Escherichia coli DH5-alpha isolate expressing pBK-TEM-36 and IRT by disk diffusion assay; type: functional; conditions: DH5alpha
[6] = test system: Escherichia coli; experiment: Antimicrobial activity against Escherichia coli DH5-alpha TC1295 isolate expressing TEM-1 by […]; type: functional; conditions: DH5alpha
[7] = test system: Escherichia coli; experiment: Antimicrobial activity against Escherichia coli DH5-alpha CF1179 isolate expressing CMT and TEM1 by […]; type: functional; conditions: DH5alpha
[8] = test system: Escherichia coli; experiment: Antimicrobial activity against Escherichia coli DH5-alpha isolate expressing pBK-CMV by […]; type: functional; conditions: DH5alpha
[9] = test system: Escherichia coli; experiment: microbe, parasite or virus in culture; type: functional; conditions: DH5alpha; remark: listed apart in the source
[10] = test system: Escherichia coli; experiment: Antimicrobial activity against recombinant Escherichia coli DH5-alpha isolate expressing pBK-TEM-29 and ESBL by disk diffusion assay; type: functional; conditions: DH5alpha
[11] = test system: Escherichia coli; experiment: Antimicrobial activity against recombinant Escherichia coli DH5-alpha isolate expressing pBK-TEM-28 and ESBL by disk diffusion assay; type: functional; conditions: DH5alpha
[12] = test system: Escherichia coli; experiment: Activity of Escherichia coli BL21(DE3) beta-lactamase TEM29
[13] = test system: Escherichia coli; experiment: Activity of Escherichia coli BL21(DE3) beta-lactamase TEM151
[14] = test system: Escherichia coli; experiment: Activity of Escherichia coli BL21(DE3) beta-lactamase TEM28
[15] = test system: Escherichia coli; experiment: Activity of Escherichia coli BL21(DE3) beta-lactamase TEM1
[16] = test system: Escherichia coli; experiment: Activity of Escherichia coli BL21(DE3) beta-lactamase TEM36
[17] = test system: Escherichia coli; experiment: Activity of Escherichia coli BL21(DE3) beta-lactamase TEM152
[18] = Inhibition of Escherichia coli BL21(DE3) beta-lactamase TEM151
[19] = Inhibition of Escherichia coli BL21(DE3) beta-lactamase TEM152
[20] = Inhibition of Escherichia coli BL21(DE3) beta-lactamase TEM1
[21] = Inhibition of Escherichia coli BL21(DE3) beta-lactamase TEM29
[22] = Inhibition of Escherichia coli BL21(DE3) beta-lactamase TEM28
[23] = Inhibition of Escherichia coli BL21(DE3) beta-lactamase TEM36

**Q.** For `CO/N=C(\C(=O)N[C@@H]1C(=O)N2C(C(=O)O)=C(COC(N)=O)CS[C@H]12)c1ccco1` [CEFUROXIME], which MIC [1] is on record?
**A.** 4 µg/mL

**Q.** And the MIC [2]?
**A.** 8 µg/mL (≈ 18.9 µM)

**Q.** What about the MIC [3] of the same compound?
**A.** 4 µg/mL (≈ 9.43 µM)

**Q.** What about the MIC [4] of the same compound?
**A.** 8 µg/mL (≈ 18.9 µM)

**Q.** And the MIC [5]?
**A.** 8 µg/mL

**Q.** What about the MIC [6] of the same compound?
**A.** 4 µg/mL (≈ 9.43 µM)

**Q.** And the MIC [7]?
**A.** 8 µg/mL (≈ 18.9 µM)

**Q.** And the MIC [8]?
**A.** 4 µg/mL (≈ 9.43 µM)

**Q.** What about the MIC [9] of the same compound?
**A.** 8 µg/mL (≈ 18.9 µM)

**Q.** What about the MIC [10] of the same compound?
**A.** 1020 µg/mL

**Q.** And the MIC [11]?
**A.** 16 µg/mL

**Q.** With `CO/N=C(\C(=O)N[C@@H]1C(=O)N2C(C(=O)[O-])=C(C[N+]3(C)CCCC3)CS[C@H]12)c1csc(N)n1` as the compound, how does the MIC [1] read?
**A.** < 0.06 µg/mL

**Q.** What about the Km [12] of the same compound?
**A.** 145 µM

**Q.** What about the kcat [12] of the same compound?
**A.** 17 s⁻¹

**Q.** What about the kcat/Km [12] of the same compound?
**A.** 110000 M⁻¹ s⁻¹

**Q.** And the MIC [3]?
**A.** < 0.06 µg/mL

**Q.** What about the Km [13] of the same compound?
**A.** 126 µM

**Q.** What about the kcat [13] of the same compound?
**A.** 2.5 s⁻¹

**Q.** What about the kcat/Km [13] of the same compound?
**A.** 20000 M⁻¹ s⁻¹

**Q.** And the MIC [4]?
**A.** 16 µg/mL (≈ 33.3 µM)

**Q.** And the Km [14]?
**A.** 72 µM

**Q.** And the kcat [14]?
**A.** 8 s⁻¹

**Q.** What about the kcat/Km [14] of the same compound?
**A.** 110000 M⁻¹ s⁻¹

**Q.** And the MIC [5]?
**A.** 0.12 µg/mL

**Q.** What about the kcat [15] of the same compound?
**A.** < 0.1 s⁻¹

**Q.** What about the MIC [6] of the same compound?
**A.** < 0.06 µg/mL

**Q.** What about the kcat [16] of the same compound?
**A.** < 0.1 s⁻¹

**Q.** And the MIC [7]?
**A.** 2 µg/mL (≈ 4.16 µM)

**Q.** What about the MIC [8] of the same compound?
**A.** < 0.06 µg/mL

**Q.** And the MIC [10]?
**A.** 4 µg/mL

**Q.** And the MIC [11]?
**A.** 16 µg/mL

**Q.** And the Km [17]?
**A.** 45 µM

**Q.** And the kcat [17]?
**A.** 2.8 s⁻¹

**Q.** And the kcat/Km [17]?
**A.** 60000 M⁻¹ s⁻¹

**Q.** Which results are given for `CO[C@@]1(NC(=O)Cc2cccs2)C(=O)N2C(C(=O)O)=C(COC(N)=O)CS[C@@H]21` [CEFOXITIN]?
**A.** MIC [1]: 4 µg/mL; MIC [2]: 8 µg/mL (≈ 18.7 µM); MIC [3]: 4 µg/mL (≈ 9.36 µM); MIC [4]: 8 µg/mL (≈ 18.7 µM); MIC [5]: 8 µg/mL; MIC [6]: 4 µg/mL (≈ 9.36 µM); MIC [7]: 8 µg/mL (≈ 18.7 µM); MIC [8]: 4 µg/mL (≈ 9.36 µM); MIC [9]: 8 µg/mL (≈ 18.7 µM); MIC [10]: 16 µg/mL; MIC [11]: 8 µg/mL

**Q.** Which MIC [1] does the source give for `CC(=O)OCC1=C(C(=O)O)N2C(=O)[C@@H](NC(=O)Cc3cccs3)[C@H]2SC1` [CEPHALOTHIN] here?
**A.** 4 µg/mL

**Q.** What about the Km [12] of the same compound?
**A.** 205 µM

**Q.** What about the kcat [12] of the same compound?
**A.** 126 s⁻¹

**Q.** And the kcat/Km [12]?
**A.** 610000 M⁻¹ s⁻¹

**Q.** What about the MIC [2] of the same compound?
**A.** 32 µg/mL (≈ 80.7 µM)

**Q.** And the MIC [3]?
**A.** 4 µg/mL (≈ 10.1 µM)

**Q.** What about the Km [13] of the same compound?
**A.** 330 µM

**Q.** And the kcat [13]?
**A.** 15 s⁻¹

**Q.** What about the kcat/Km [13] of the same compound?
**A.** 40000 M⁻¹ s⁻¹

**Q.** And the MIC [4]?
**A.** 16 µg/mL (≈ 40.4 µM)

**Q.** What about the Km [14] of the same compound?
**A.** 288 µM

**Q.** And the kcat [14]?
**A.** 194 s⁻¹

**Q.** What about the kcat/Km [14] of the same compound?
**A.** 670000 M⁻¹ s⁻¹

**Q.** What about the MIC [5] of the same compound?
**A.** 16 µg/mL

**Q.** And the Km [15]?
**A.** 242 µM

**Q.** What about the kcat [15] of the same compound?
**A.** 165 s⁻¹

**Q.** What about the kcat/Km [15] of the same compound?
**A.** 700000 M⁻¹ s⁻¹

**Q.** What about the MIC [6] of the same compound?
**A.** 4 µg/mL (≈ 10.1 µM)

**Q.** And the Km [16]?
**A.** 335 µM

**Q.** What about the kcat [16] of the same compound?
**A.** 18.4 s⁻¹

**Q.** What about the kcat/Km [16] of the same compound?
**A.** 50000 M⁻¹ s⁻¹

**Q.** What about the MIC [7] of the same compound?
**A.** 32 µg/mL (≈ 80.7 µM)

**Q.** And the MIC [8]?
**A.** 4 µg/mL (≈ 10.1 µM)

**Q.** What about the MIC [9] of the same compound?
**A.** 8 µg/mL (≈ 20.2 µM)

**Q.** And the MIC [10]?
**A.** 64 µg/mL

**Q.** What about the MIC [11] of the same compound?
**A.** 128 µg/mL

**Q.** And the Km [17]?
**A.** 260 µM

**Q.** And the kcat [17]?
**A.** 4 s⁻¹

**Q.** What about the kcat/Km [17] of the same compound?
**A.** 20000 M⁻¹ s⁻¹

**Q.** For `C[C@H]1[C@H](NC(=O)/C(=N\OC(C)(C)C(=O)O)c2csc(N)n2)C(=O)N1S(=O)(=O)O` (stereo in doubt) [AZTREONAM], which Km [12] is on record?
**A.** 34 µM

**Q.** What about the kcat [12] of the same compound?
**A.** 2.1 s⁻¹

**Q.** And the kcat/Km [12]?
**A.** 60000 M⁻¹ s⁻¹

**Q.** And the MIC [2]?
**A.** 8 µg/mL (≈ 18.4 µM)

**Q.** What about the Km [13] of the same compound?
**A.** 83 µM

**Q.** And the kcat [13]?
**A.** 8.3 s⁻¹

**Q.** And the kcat/Km [13]?
**A.** 100000 M⁻¹ s⁻¹

**Q.** And the MIC [4]?
**A.** 64 µg/mL (≈ 147 µM)

**Q.** What about the Km [14] of the same compound?
**A.** 75 µM

**Q.** What about the kcat [14] of the same compound?
**A.** 43 s⁻¹

**Q.** And the kcat/Km [14]?
**A.** 570000 M⁻¹ s⁻¹

**Q.** What about the kcat [15] of the same compound?
**A.** < 0.1 s⁻¹

**Q.** And the kcat [16]?
**A.** < 0.1 s⁻¹

**Q.** What about the MIC [7] of the same compound?
**A.** > 2050 µg/mL

**Q.** What about the MIC [9] of the same compound?
**A.** 2 µg/mL (≈ 4.59 µM)

**Q.** And the MIC [10]?
**A.** 4 µg/mL

**Q.** What about the Km [17] of the same compound?
**A.** 22 µM

**Q.** What about the kcat [17] of the same compound?
**A.** 3.5 s⁻¹

**Q.** And the kcat/Km [17]?
**A.** 160000 M⁻¹ s⁻¹

**Q.** With `O=C(O)[C@H]1/C(=C/CO)O[C@@H]2CC(=O)N21` [CLAVULANIC ACID] as the compound, how does the IC50 [18] read?
**A.** 170 nM

**Q.** And the IC50 [19]?
**A.** 1000 nM

**Q.** What about the IC50 [20] of the same compound?
**A.** 25 nM

**Q.** What about the IC50 [21] of the same compound?
**A.** 20500 nM

**Q.** What about the IC50 [22] of the same compound?
**A.** 20 nM

**Q.** What about the IC50 [23] of the same compound?
**A.** 80 nM
